# ChEMBL document CHEMBL1201862, “PubChem BioAssay data set” (2004)
#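 Test compounds were applied to cells in 96-well plates for 48 hours at 5 doses. GI50 = concentration required for 50% inhibition of growth.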 Calls of active or inactive are those of the source. Cut-off read from the data, not from the text of the source: active = GI50 up to about 1.1 µM and inactive = higher.
# Legend:
# Experiment in all cases: NCI-60 cell line screen, 48 h
# ACHN = test system: ACHN
# UACC-62 = test system: UACC-62
# CAKI-1 = test system: CAKI-1
# RPMI-8226 = test system: RPMI-8226
# KM12 = test system: KM12
# COLO 205 = test system: COLO 205
# A549 = test system: A549
# XF498 = test system: XF498
# IGROV-1 = test system: IGROV-1
# SNB-19 = test system: SNB-19
# SN12C = test system: SN12C
# MOLT-4 = test system: MOLT-4
# A498 = test system: A498
# UACC-257 = test system: UACC-257
# SF-268 = test system: SF-268
# RXF 393 = test system: RXF 393
# PC-3 = test system: PC-3
# OVCAR-3 = test system: OVCAR-3
# MDA-N = test system: MDA-N
# MDA-MB-435 = test system: MDA-MB-435
SMILES,GI50 (ACHN),GI50 (UACC-62),GI50 (CAKI-1),GI50 (RPMI-8226),GI50 (KM12),GI50 (COLO 205),GI50 (A549),GI50 (XF498),GI50 (IGROV-1),GI50 (SNB-19),GI50 (SN12C),GI50 (MOLT-4),GI50 (A498),GI50 (UACC-257),GI50 (SF-268),GI50 (RXF 393),GI50 (PC-3),GI50 (OVCAR-3),GI50 (MDA-N),GI50 (MDA-MB-435)
Oc1cc(-c2ccc3c(c2)OCO3)nc2cc3c(cc12)OCO3,46.1 µM (inactive),36.9 µM (inactive),64.4 µM (inactive),37.5 µM (inactive),36.1 µM (inactive),31.5 µM (inactive),42.9 µM (inactive),31.8 µM (inactive),> 100 µM (inactive),54.3 µM (inactive),39.5 µM (inactive),59.8 µM (inactive),–,–,–,–,–,–,–,–
COc1cc(C(c2cc3c(cc2O)OCO3)N2CCCCC2)cc(OC)c1OC (configuration not stated),17.1 µM (inactive),16.4 µM (inactive),12.1 µM (inactive),2.96 µM (inactive),18.2 µM (inactive),13.4 µM (inactive),20.9 µM (inactive),–,17.7 µM (inactive),20.6 µM (inactive),11.5 µM (inactive),2.15 µM (inactive),19.5 µM (inactive),12.5 µM (inactive),15.8 µM (inactive),13.2 µM (inactive),15.8 µM (inactive),13.8 µM (inactive),7.28 µM (inactive),5.02 µM (inactive)
CCOc1ccc(-n2c(=O)c3nn4c(=O)n(-c5ccc(OCC)cc5)c(=O)c4nn3c2=O)cc1,> 100 µM (inactive),> 100 µM (inactive),> 100 µM (inactive),> 100 µM (inactive),> 100 µM (inactive),> 100 µM (inactive),> 100 µM (inactive),–,> 100 µM (inactive),63 µM (inactive),> 100 µM (inactive),> 100 µM (inactive),18.6 µM (inactive),> 100 µM (inactive),> 100 µM (inactive),44.6 µM (inactive),> 100 µM (inactive),> 100 µM (inactive),> 100 µM (inactive),> 100 µM (inactive)
Cc1ccc(C(=O)NCCN(C)C)c2nc3ccccc3cc12,0.45 µM (active),2.47 µM (inactive),1.79 µM (inactive),4.24 µM (inactive),1.1 µM (active),1.57 µM (inactive),0.92 µM (active),1.38 µM (inactive),6.58 µM (inactive),2.36 µM (inactive),0.809 µM (active),0.608 µM (active),–,1.3 µM (inactive),–,1.29 µM (inactive),–,1.32 µM (inactive),–,–
C=C1C(=O)CC2C1CC(=O)/C(C)=C/CCC(C)(O)C2O (configuration not stated),2.37 µM (inactive),0.603 µM (active),1.55 µM (inactive),1.41 µM (inactive),13.8 µM (inactive),2.03 µM (inactive),27.3 µM (inactive),–,10.6 µM (inactive),> 54.3 µM (inactive),2.29 µM (inactive),1.57 µM (inactive),1.19 µM (inactive),0.708 µM (active),18.1 µM (inactive),6.67 µM (inactive),0.853 µM (active),7.16 µM (inactive),1.48 µM (inactive),6.55 µM (inactive)
O=C(CC(c1ccccc1)N1CCCCC1)c1ccccc1 (configuration not stated),17 µM (inactive),16.6 µM (inactive),15.7 µM (inactive),2.49 µM (inactive),6.82 µM (inactive),20.1 µM (inactive),20.5 µM (inactive),–,14 µM (inactive),19.6 µM (inactive),15.6 µM (inactive),1.96 µM (inactive),15.6 µM (inactive),14.4 µM (inactive),16 µM (inactive),18 µM (inactive),15 µM (inactive),11.2 µM (inactive),12.2 µM (inactive),12.2 µM (inactive)
COc1ccc(/N=N/C(=NNC(=O)c2ccc(C)cc2)c2ccc(N(C)C)cc2)cc1,35.1 µM (inactive),25.1 µM (inactive),> 91.8 µM (inactive),17.5 µM (inactive),30.1 µM (inactive),6.84 µM (inactive),48.3 µM (inactive),–,59.6 µM (inactive),61.2 µM (inactive),56.6 µM (inactive),20.9 µM (inactive),52 µM (inactive),33.3 µM (inactive),> 85.7 µM (inactive),32 µM (inactive),57.7 µM (inactive),28.4 µM (inactive),23.8 µM (inactive),20.1 µM (inactive)
O=[N+]([O-])c1cnn(C2=CNc3ccccc3N=C2)c1,> 100 µM (inactive),> 100 µM (inactive),–,–,–,> 100 µM (inactive),> 100 µM (inactive),> 100 µM (inactive),–,> 100 µM (inactive),> 100 µM (inactive),> 100 µM (inactive),–,> 100 µM (inactive),> 100 µM (inactive),46.7 µM (inactive),–,> 100 µM (inactive),–,–
O=C1CC[C@@H](S(=O)(=O)c2ccccc2)[C@@H](/C=C/c2ccccc2)O1,> 100 µM (inactive),> 100 µM (inactive),–,> 100 µM (inactive),> 100 µM (inactive),> 100 µM (inactive),> 100 µM (inactive),< 0.01 µM (active),> 100 µM (inactive),> 100 µM (inactive),> 100 µM (inactive),> 100 µM (inactive),> 100 µM (inactive),> 100 µM (inactive),–,> 100 µM (inactive),–,> 100 µM (inactive),–,–
ONCCCn1cnc2c(NC3CC3)ncnc21,> 100 µM (inactive),> 100 µM (inactive),> 100 µM (inactive),> 100 µM (inactive),> 100 µM (inactive),> 100 µM (inactive),> 100 µM (inactive),–,> 100 µM (inactive),> 100 µM (inactive),> 100 µM (inactive),> 100 µM (inactive),> 100 µM (inactive),> 100 µM (inactive),> 100 µM (inactive),> 100 µM (inactive),> 100 µM (inactive),> 100 µM (inactive),> 100 µM (inactive),> 100 µM (inactive)
CC1(C)OCC(C2OC(OC(=O)c3ccc([N+](=O)[O-])cc3)C3OC(C)(C)OC23)O1 (configuration not stated),60.5 µM (inactive),> 100 µM (inactive),> 100 µM (inactive),> 100 µM (inactive),> 100 µM (inactive),> 100 µM (inactive),> 100 µM (inactive),–,> 100 µM (inactive),59 µM (inactive),> 100 µM (inactive),> 100 µM (inactive),> 100 µM (inactive),> 100 µM (inactive),20.5 µM (inactive),58.1 µM (inactive),> 100 µM (inactive),> 100 µM (inactive),> 100 µM (inactive),> 100 µM (inactive)
CCOC(=O)c1nc2cc(C(F)(F)F)ccc2nc1Oc1ccc(C#N)cc1,> 100 µM (inactive),> 100 µM (inactive),> 100 µM (inactive),54.3 µM (inactive),> 100 µM (inactive),> 100 µM (inactive),> 100 µM (inactive),–,> 100 µM (inactive),> 100 µM (inactive),> 100 µM (inactive),63.2 µM (inactive),69.8 µM (inactive),> 100 µM (inactive),> 100 µM (inactive),19.1 µM (inactive),> 100 µM (inactive),> 100 µM (inactive),> 100 µM (inactive),> 100 µM (inactive)
O=c1oc2nc(-c3ccccc3)cc(C(F)(F)F)c2n1Cc1ccccc1,11.7 µM (inactive),4.24 µM (inactive),7.8 µM (inactive),4.41 µM (inactive),2.84 µM (inactive),7.82 µM (inactive),8.69 µM (inactive),–,13.4 µM (inactive),6.52 µM (inactive),5.9 µM (inactive),4.21 µM (inactive),2.07 µM (inactive),> 37.8 µM (inactive),> 25 µM (inactive),2.71 µM (inactive),3.46 µM (inactive),4.06 µM (inactive),0.689 µM (active),0.659 µM (active)
Cc1ccc(C(=O)CC(O)(C(F)(F)F)C(F)(F)F)cc1[N+](=O)[O-],15.5 µM (inactive),8.55 µM (inactive),2.36 µM (inactive),12.6 µM (inactive),2.19 µM (inactive),16.8 µM (inactive),11.1 µM (inactive),–,5.05 µM (inactive),9.06 µM (inactive),10 µM (inactive),16.7 µM (inactive),21.3 µM (inactive),3.21 µM (inactive),9.42 µM (inactive),13.8 µM (inactive),11.3 µM (inactive),2.2 µM (inactive),10.2 µM (inactive),8.41 µM (inactive)
Cc1ccc2nc(-c3ccc(NC(=O)c4ccc(N)cc4)c(S(=O)(=O)O)c3)sc2c1,> 100 µM (inactive),> 100 µM (inactive),> 100 µM (inactive),> 100 µM (inactive),> 100 µM (inactive),> 100 µM (inactive),> 100 µM (inactive),–,> 100 µM (inactive),> 100 µM (inactive),> 100 µM (inactive),> 100 µM (inactive),> 100 µM (inactive),> 100 µM (inactive),> 100 µM (inactive),> 100 µM (inactive),> 100 µM (inactive),> 100 µM (inactive),> 100 µM (inactive),> 100 µM (inactive)
CCCCc1c2c(c(C)c3c1C(=O)OC3)Oc1ccccc1O2,4.59 µM (inactive),0.535 µM (active),5.74 µM (inactive),1.25 µM (inactive),0.815 µM (active),0.855 µM (active),1.73 µM (inactive),–,0.608 µM (active),3.95 µM (inactive),1.85 µM (inactive),0.973 µM (active),1.25 µM (inactive),0.428 µM (active),1.64 µM (inactive),0.975 µM (active),0.442 µM (active),0.274 µM (active),0.145 µM (active),0.173 µM (active)
